The target of this assay is T1, cannabinoid CB1 (Homo sapiens, UniProt P21554).
T1 construct: purchased
Nature of the assay: Competition binding assay for cannabinoid CB1 affinity (3H-CP55,940 displacement). Here is the method: Competition binding assays for cannabinoid CB1 and CB2 affinity were performed by incubating commercially purchased membranes prepared from cells expressing each receptor subtype (8 μg pro) with 0.5 nM ^3H-CP55,940, a non-selective cannabinoid agonist, along with concentrations of drug ranging from 0.0001-3 μM in Buffer A (5 mM MgCl2, 2.5 mM EDTA and […] BSA). Non-specific binding was defined in the presence of 10 μM CP55,940. For saturation studies, concentrations of ^3H-CP55,940 ranging from 0.1-5 nM were incubated with membranes in the presence and absence of 10 μM CP55,940. Assays were terminated after incubation for 1½ hours by rapid filtration onto 0.3% polyethylenamine treated GF/C filterplates using a BRANDEL cell harvester. […]
The dissociation constant (Kd) of ^3H-CP55,940 at the CB1 and CB2 receptor were determined by plotting specific binding at each concentration of radioligand, and analysis by non-linear regression. For competition studies, the concentration of each drug that inhibited 50 percent of ^3H-CP55,940 binding (IC50) was determined by non-linear regression analysis of the radioligand displacement curves. Affinity constants (Ki) were calculated using the equation derived by Cheng and Prusoff (1973), defined as: IC50/1+[conc. ligand/Kd].

T1 sequence (P21554 whole entry): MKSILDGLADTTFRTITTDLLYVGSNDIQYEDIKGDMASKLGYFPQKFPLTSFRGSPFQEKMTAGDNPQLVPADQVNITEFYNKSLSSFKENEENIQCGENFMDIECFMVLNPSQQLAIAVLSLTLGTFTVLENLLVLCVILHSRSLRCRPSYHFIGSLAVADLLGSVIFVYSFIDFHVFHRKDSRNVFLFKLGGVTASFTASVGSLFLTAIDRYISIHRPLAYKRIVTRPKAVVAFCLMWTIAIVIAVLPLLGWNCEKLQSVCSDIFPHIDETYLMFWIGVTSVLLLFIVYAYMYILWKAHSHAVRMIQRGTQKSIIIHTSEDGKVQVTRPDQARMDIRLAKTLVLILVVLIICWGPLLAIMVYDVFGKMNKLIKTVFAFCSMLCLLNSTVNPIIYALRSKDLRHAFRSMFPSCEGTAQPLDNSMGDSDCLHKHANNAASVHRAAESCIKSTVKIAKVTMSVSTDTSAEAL

The Ki is a measure of affinity in units of concentration, obtained from inhibition or displacement. High values mean lower affinity, low ones higher affinity. Consider `O=C(NC1CCCC1)C1CCC(c2ccc(Cl)cc2)=C(c2ccc(Cl)cc2)C1` (stereo not shown) [Compound 180], for which the Ki was in the range of 1 to 10 nM.

These data come from patent publication US7897601B2, “Cannabinoid receptor modulators” (Intervet, Inc., priority 2006, dated 2011).
